Data on 72 molecules can be found in PubChem BioAssay AID179 (DTP/NCI, 2004).

This assay concerns CEM cells HIV-1 protection, formazan growth assay. In words: NCI AIDS Antiviral Assay. Conditions: for IC50: measured here: growth of uninfected CEM cells. The procedure, abridged: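 Five concentrations of each compound were applied to infected and uninfected human CEM cells. Protection from HIV-1 was judged from growth measured with a soluble formazan assay.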

Structures are written as SMILES. Activity calls are given as the source filed them.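 The calls were made as follows: active = compounds giving half or more protection of infected cells from virus-caused growth loss, again on retest; inactive = the rest.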 Where a SMILES comes first, the peptide text is derived from it. Bridges are numbered along the chain shown (N, C = ends). The star is where a group is joined. Cbz = O=C(OCc1ccccc1)* Bounds are passed on as bounds.

For the molecule `CCOC(=O)C(/C=N\C(=S)Nc1c(CC)cccc1C(C)(C)C)=C(/O)c1ccccc1`, the EC50 was greater than 200 µM and the IC50 is greater than 200 µM.

Turning to `c1ccc(C2CN3CCSC3=N2)cc1` (stereo not drawn), the EC50 was greater than 200 µM and the 50% inhibitory concentration (IC50) is greater than 200 µM.

Turning to `Nc1[nH]c(=O)ncc1F`, the EC50 was greater than 200 µM and the IC50 was greater than 200 µM.

`CC1CC(C(=O)CC2CC(=O)NC(=O)C2)C(=O)[C@@H](C)C1` (stereo partly drawn): the result was inactive.

Regarding `[O-][n+]1onc(-c2ccccc2)c1-c1ccccc1`, the EC50 was greater than 151 µM and the IC50 was greater than 151 µM.

Turning to `O=P1(Cc2ccccc2)OC2CC(Cl)CC(C2)O1` (stereo not drawn), the EC50 was greater than 126 µM and the IC50 is greater than 126 µM.

For the molecule `CC1C2C=CC1C(c1c3ccc(=O)c(O)c-3oc3c(O)c(O)ccc13)C2C(=O)O` (stereo not drawn), the EC50 came to 2.04 µM and the IC50 is greater than 200 µM.

Turning to `N#Cc1ccc(Sc2nc3ccccc3[nH]2)cc1`, the outcome was inactive.

For `Cc1ccc(-c2cc(=O)c3cc(C)c(C)c(C(=O)O)c3o2)cc1[N+](=O)[O-]`, the result was inactive.

Take `COc1ccc(C(C2=C(C)C(=O)c3ccccc3C2=O)c2ccc(C(C)C)cc(=O)c2O)cc1` (stereo not drawn): the outcome was inactive.

Regarding `CCC/C(=N/NC(=O)C(N)=O)C(CC)C(=O)CCC(=O)N(Cc1ccccc1)Cc1ccccc1` (stereo not drawn), the EC50 is greater than 525 µM and the IC50 was greater than 525 µM.

Consider `O=C(OCCN=C1c2ccccc2CCc2ccccc21)c1ccccc1`, for which the EC50 was greater than 200 µM and the IC50 is greater than 200 µM.

In the case of `CCn1c(=O)c2c3cc(O)ccc3oc2c2ccc(O)cc21`, the EC50 is greater than 200 µM and the IC50 is greater than 200 µM.

For the molecule `O=Nc1c(O)[nH]c(=O)[nH]c1=O`, the EC50 is greater than 200 µM and the IC50 is greater than 200 µM.

As to `O=C(NNC(=O)c1cc2ccccc2[nH]1)c1cc2ccccc2[nH]1`, the EC50 was greater than 200 µM and the IC50 is greater than 200 µM.

With `N=C1N=C(N)c2cc3c(cc21)SCCSCCCSCCS3`, the EC50 was greater than 50.1 µM and the IC50 amounted to 8.51 µM.

For `O=C1C=C(NC(=O)c2ccc(Cl)cc2)c2ncccc2C1=O`, the outcome was inactive.

For `Cc1nc(-c2ccc(Cl)cc2)cn2c1nc1ccccc12`, the EC50 is 61.7 µM and the IC50 was 191 µM.

For the molecule `Cn1c2cccc3nnc4cccc(c4c32)n1C`, the result was inactive.

Take `O=C(Nc1ccccc1)N1CCC2N(C(=O)Nc3ccccc3)CCC3N(C(=O)Nc4ccccc4)CCC1N23` (stereo not drawn): the EC50 is greater than 13.2 µM and the half-inhibitory concentration (IC50) is greater than 13.2 µM.

`CSC1=NCc2c(sc3c2CCCC3)N1`: the EC50 is greater than 200 µM and the IC50 came to 35.5 µM.

Consider `Cc1cn(C2CC(N=[N+]=[N-])C(CO)O2)c(=O)[nH]c1=O` (stereo not drawn), for which the EC50 was 0.0148 µM and the 50% inhibitory concentration (IC50) is 0.316 µM.

In the case of `COC1(c2ccccc2)Oc2ccccc2C(=O)C1(O)C[N+](=O)[O-]` (stereo not drawn), the EC50 is greater than 200 µM and the half-maximal inhibitory concentration (IC50) was found to be 15.5 µM.

In the case of `O=C1NC(Cc2ccc(O)c(O)c2)C(=O)N2CCCC12` (stereo not drawn), the EC50 was greater than 200 µM and the IC50 is greater than 200 µM.

For the molecule `CC(=O)CC1CCC(=O)/C=C/C(=O)OC(CC(C)=O)CCC(=O)/C=C/C(=O)O1` (stereo not drawn), the EC50 is greater than 200 µM and the IC50 was determined as 1.91 µM.

Turning to `CN1CCC23c4c5cc(-c6cc7c8c(c6O)OC6C(O)C=CC9C(C7)N(C)CCC896)c(O)c4OC2C(O)C=CC3C1C5` (stereo not drawn), the outcome was inactive.

As for `O=c1ccc2ccc(O)c(O)c2o1`, the EC50 is greater than 1410 µM and the half-maximal inhibitory concentration (IC50) was found to be 66.1 µM.

With `O=C1c2ccccc2C(=O)C1C(c1ccc(F)cc1)C1C(=O)c2ccccc2C1=O`, the EC50 is greater than 46.8 µM and the IC50 was found to be 36.3 µM.

Take `Brc1ccc(OCc2ccccc2)c2ccccc12`: the EC50 is greater than 200 µM and the half-inhibitory concentration (IC50) is 63.1 µM.

Regarding `COc1cc(OC)c2nc3occc3c(OC)c2c1`, the EC50 is greater than 363 µM and the half-inhibitory concentration (IC50) was 58.9 µM.

Consider `CCCCNC(=O)c1cc(S(=O)(=O)n2cc[nH]c2=O)c(SC)cc1Cl`, for which the EC50 is greater than 200 µM and the IC50 was greater than 200 µM.

As for `CC1C[C@@H]2C(=O)NC(=O)[C@@H]2c2c1c1ccccc1n2C` (stereo partly drawn), the EC50 is greater than 331 µM and the 50% inhibitory concentration (IC50) amounted to 214 µM.

`CC(C)(C)c1ccc(OP(=S)(NN)Oc2ccc(C(C)(C)C)cc2)cc1`: the EC50 was greater than 61.7 µM and the IC50 came to 30.2 µM.

Take `NNC(=O)C(CC(C(=O)NN)C(=O)NN)C(=O)NN`: the EC50 was greater than 912 µM and the 50% inhibitory concentration (IC50) worked out at 66.1 µM.

In the case of `CCOC(=O)N1C2C=CC(C2)N1C(=O)Nc1ccc(Cl)cc1` (stereo not drawn), the EC50 was greater than 200 µM and the IC50 worked out at 170 µM.

`CC1CCCc2c(-c3ccc(Cl)cc3)nc(N)c(C#N)c21` (stereo not drawn): the EC50 was greater than 200 µM and the IC50 amounted to 26.3 µM.

As to `NC(=S)N/N=C1\c2ccccc2CCC1CCC1(O)CCc2ccccc2C1=O` (stereo not drawn), the EC50 is greater than 200 µM and the IC50 turned out to be 31.6 µM.

Consider `N#Cc1cc2c(n(NS(=O)(=O)c3ccccc3)c1=O)CCCC2`, for which the EC50 is greater than 200 µM and the half-inhibitory concentration (IC50) was greater than 200 µM.

With `Nc1nc2ccc(Sc3ccc4nc(N)[nH]c(=O)c4c3)cc2c(=O)[nH]1`, the EC50 is greater than 100 µM and the half-maximal inhibitory concentration (IC50) is greater than 100 µM.

As for `CC(=O)NNc1nc(C)c(C(=O)NNC(=O)C(=O)Nc2ccc(C)c(C)c2)s1`, the EC50 was greater than 170 µM and the IC50 amounted to 31.6 µM.

With `Cc1cccc(C(C)(C)C)c1NC(=O)CC1C(=O)Nc2ccccc2S1=O` (stereo not drawn), the result was inactive.

Turning to `COC1c2ccccc2CC(c2ccccc2)=NN1C(C)=O` (stereo not drawn), the EC50 is greater than 89.1 µM and the IC50 is 51.3 µM.

As for `CCOC(=O)C1(c2ccccc2)CCN(Cc2ccccc2)CC1`, the EC50 is greater than 100 µM and the IC50 was determined as 52.5 µM.

Turning to `COC(=O)C1CCC(=O)NCCCCC(NC(=O)OCc2ccccc2)C(=O)N1` (stereo not drawn) (Cbz-Lys-Glu-OMe; lactam 1-2; configuration not given here), the EC50 was greater than 200 µM and the IC50 is greater than 200 µM.

In the case of `O=C1C2C3SC(c4cc5ccccc5cc43)C2C(=O)N1c1ccccc1` (stereo not drawn), the result was inactive.

For `COc1ccc(/C(C)=N/NC(N)=O)cc1`, the EC50 is greater than 174 µM and the IC50 was greater than 174 µM.

For `CCN1CCN=c2c3cc(OC)ccc3n3cnc4ccc1c2c43`, the EC50 was greater than 20 µM and the IC50 came to 0.0955 µM.

Take `CC(C)(C)C1=CC(=Nc2c([N+](=O)[O-])cc([N+](=O)[O-])cc2[N+](=O)[O-])C=C(C(C)(C)C)C1=O`: the EC50 was greater than 11.5 µM and the concentration for half-maximal inhibition (IC50) is greater than 11.5 µM.

Turning to `O=S1(=O)CCCS(=O)(=O)C(c2ccccc2)=C1c1ccccc1`, the EC50 is greater than 145 µM and the IC50 came out at 50.1 µM.

In the case of `CCN(CC)CCOC(=O)c1ccc(N)cc1`, the EC50 was greater than 200 µM and the IC50 was greater than 200 µM.

`Cc1ccc(NC(=O)/C(Cc2cc(=O)oc3cc(O)ccc23)=N\NC(C)(C)C)cc1C`: the EC50 was greater than 17 µM and the IC50 was greater than 17 µM.

As for `CC(C)[Si](OC1=CCC[C@H]2NC(=O)[C@@H](Cc3ccccc3)[C@@]12C)(C(C)C)C(C)C`, the EC50 is greater than 200 µM and the IC50 stood at 12 µM.

As for `O=C(CNc1ccccn1)Nn1cnc2ccc(S(=O)(=O)Nc3ccccn3)cc2c1=O`, the EC50 is greater than 200 µM and the IC50 is greater than 200 µM.

`O=C1c2ccccc2C(=O)N1N1C(=O)C2C3CCC(O3)C2C1=O` (stereo not drawn): the EC50 is greater than 200 µM and the IC50 was determined as 95.5 µM.

For `COc1nc2ncc([C@@H](OC(C)=O)[C@@H](COC(C)=O)OC(C)=O)nc2c(=O)[nH]1`, the EC50 was greater than 200 µM and the IC50 was greater than 200 µM.

Turning to `COc1cc(C2SC(N)=Nc3c2c(C)nn3C(=O)Cc2ccccc2)ccc1O` (stereo not drawn), the EC50 is 70.8 µM and the IC50 was greater than 200 µM.

As to `CCCCCCCCCCCCCCCCCC1=Nc2ccccc2NC(=O)C1`, the EC50 was greater than 100 µM and the IC50 is greater than 100 µM.

As for `COc1ccc(Nc2nc3c(N)cc(C(F)(F)F)cc3nc2-c2ccccc2)cc1OC`, the EC50 was greater than 16.2 µM and the IC50 was greater than 16.2 µM.

With `CCOC(=O)Cn1sc2ncc([N+](=O)[O-])cc2c1=O`, the EC50 was greater than 13.5 µM and the IC50 was 8.91 µM.

For the molecule `Cc1cc(N)ccc1N=Nc1ccc(S(=O)(=O)CCOS(=O)(=O)O)cc1`, the EC50 is greater than 2 µM and the IC50 is 0.912 µM.

Consider `COc1nc2c(nc(N)n2C2OCC(O)C(O)C2O)c(=O)n1C` (stereo not drawn), for which the outcome was inactive.

On to `Oc1ccc(S)cc1CNC1CCCCC1`, for which the EC50 is greater than 200 µM and the IC50 is 13.2 µM.

Regarding `Cc1cc(C)nc(NS(=O)(=O)c2ccc(Nc3c4ccccc4nc4c(C(=O)Nc5ccc(S(=O)(=O)N=C(N)N)cc5)cccc34)cc2)n1`, the EC50 is 49 µM and the IC50 is 51.3 µM.

In the case of `COc1cccc2c1-c1nc(N)c3c(OC)cccc3c1C2=O`, the EC50 is 74.1 µM and the IC50 was greater than 200 µM.

Regarding `CC(C)S(=O)(=O)n1c(N)nc2ccc(/C(=N/O)c3ccccc3)cc21`, the EC50 was 5.01 µM and the IC50 is 9.77 µM.

Consider `CCCCCC=C(c1cc(Cl)c(OC)c(C(=O)OCCC)c1)c1cc(Cl)c(OC)c(C(=O)OCCC)c1`, for which the EC50 was greater than 12.3 µM and the half-inhibitory concentration (IC50) was greater than 12.3 µM.

Turning to `Cn1c2c3ccccc3nc-2cc2ccccc21`, the EC50 is greater than 174 µM and the IC50 was 0.316 µM.

With `O=[N+]([O-])C(/C=C(\Cl)[N+](=O)[O-])=C(N1CCOCC1)N1CCOCC1`, the EC50 was greater than 200 µM and the IC50 turned out to be 110 µM.

`Cc1ccccc1NC(=O)C(=O)C1CN(c2ccccc2)N=C1N` (stereo not drawn): the EC50 is greater than 209 µM and the IC50 was greater than 209 µM.

`S=c1sc2ccccc2n1CCSSCCn1c(=S)sc2ccccc21`: the EC50 was greater than 200 µM and the half-inhibitory concentration (IC50) was determined as 191 µM.

Turning to `COC1/C=C\OC2(C)Oc3c(C)c(O)c4c(O)c(cc(OCC(=O)N(C)Cc5ccccc5)c4c3C2=O)NC(=O)/C(C)=C\C=C/C(C)C(O)C(C)C(O)C(C)C(OC(C)=O)C1C` (stereo not drawn), the EC50 was greater than 200 µM and the IC50 came to 39.8 µM.

For `CC1OC(OCC2OC(Oc3c(-c4ccc(O)cc4)oc4cc(OC5OC(C)C(O)C(O)C5O)cc(O)c4c3=O)C(O)C(O)C2O)C(O)C(O)C1O` (stereo not drawn), the outcome was active.
